Experiment [1] addresses rat 5-HT7 receptor (Rattus norvegicus (Rat), UniProt P32305). In words: r5-HT7 binding assay, competitive radioligand binding with [3H]5-CT. The method, boiled down:
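For h5-HT6, stably transfected HEK-293 membranes were exposed to 1.7 nM [3H]LSD plus increasing compound for 60 min at room temperature, with 10 μM clozapine for nonspecific binding. The r5-HT7 assay used [3H]5-CT competition on recombinant HEK-293 membranes, Ki derived from radioactivity counts.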

In experiment [2] the target is h5-HT6 (Homo sapiens (Human), UniProt P50406). The experiment can be described thus: h5-HT6 binding assay with [3H]LSD on HEK-293 membranes. Conditions: read-out: h5HT6 binding Ki. The procedure:
Receptor binding was performed using membrane fractions prepared from the HEK-293 cell line recombinantly expressing rat 5-HT7 receptors (NCBI accession NM_022938). Compound affinity for the rat 5-HT7 receptor subtype was evaluated by competitive radioligand binding assays using 5-carboxamido[^3H]tryptamine ([^3H]5-CT) (Amersham Biosciences, cat. 90000403) detection. HitHunter™ cAMP assays are in-vitro based competitive immunoassays. The assay was performed on the HEK-293 cell line stably transfected with r5-HT7 receptor. Cells were pre-incubated with test compounds for 10 minutes. For antagonist testing, the cells were then challenged with 100 nM 5-CT for 20 minutes. Cells were then lysed and cAMP measured according to manufacturers protocol (Amersham, cat. NET791250UC) or [^3H]mesulergine (Amersham, cat. TRK1041). The assay was performed on membranes prepared from HEK-293 cells stably transfected with h5-HT6. Following centrifugation, membranes were resuspended and incubated for 60 min at room temperature with 1.7 nM [^3H]LSD in the presence of increasing concentration of test compounds. Nonspecific binding was defined in the presence of 10 μM clozapine (Tocris, cat. TRK1068). Homogenized HEK-293 membranes expressing the human SERT were incubated in 50 mM Tris-HCl (pH 7.5), 120 mM NaCl, 5 mM KCl with [^3H]-citalopram (3 nM) with or without test compounds. Nonspecific binding was determined in the presence of 10 μM fluoxetine. Radioactivity readouts and Ki values were performed as previously described for r5-HT7. […] Compounds were assayed in their free form or as salts, as indicated in the Examples section above.

Experiment [3] has as its target h5HT2A (Homo sapiens (Human), UniProt P28223). In words: h5HT2A binding.
The target of experiment [4] is h5HT2B (Homo sapiens (Human), UniProt P41595). In words: h5HT2B binding.
Chain of h5HT2B (P41595 whole entry): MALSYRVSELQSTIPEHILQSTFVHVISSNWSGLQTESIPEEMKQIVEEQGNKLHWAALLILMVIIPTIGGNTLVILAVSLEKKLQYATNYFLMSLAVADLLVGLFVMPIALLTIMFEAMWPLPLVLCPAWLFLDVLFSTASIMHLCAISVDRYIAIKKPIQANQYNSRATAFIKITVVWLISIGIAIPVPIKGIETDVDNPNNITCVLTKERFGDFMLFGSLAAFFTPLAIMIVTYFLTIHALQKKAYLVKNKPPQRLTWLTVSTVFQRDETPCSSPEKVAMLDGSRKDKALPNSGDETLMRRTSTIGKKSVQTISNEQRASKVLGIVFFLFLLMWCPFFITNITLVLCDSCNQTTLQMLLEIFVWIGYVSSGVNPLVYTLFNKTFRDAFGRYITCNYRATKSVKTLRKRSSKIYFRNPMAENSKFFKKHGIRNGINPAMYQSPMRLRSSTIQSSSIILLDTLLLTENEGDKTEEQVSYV
The target of experiment [5] is h5HT2C (Homo sapiens (Human), UniProt P28335). In words: h5HT2C binding.
Chain of h5HT2C (P28335 33-458): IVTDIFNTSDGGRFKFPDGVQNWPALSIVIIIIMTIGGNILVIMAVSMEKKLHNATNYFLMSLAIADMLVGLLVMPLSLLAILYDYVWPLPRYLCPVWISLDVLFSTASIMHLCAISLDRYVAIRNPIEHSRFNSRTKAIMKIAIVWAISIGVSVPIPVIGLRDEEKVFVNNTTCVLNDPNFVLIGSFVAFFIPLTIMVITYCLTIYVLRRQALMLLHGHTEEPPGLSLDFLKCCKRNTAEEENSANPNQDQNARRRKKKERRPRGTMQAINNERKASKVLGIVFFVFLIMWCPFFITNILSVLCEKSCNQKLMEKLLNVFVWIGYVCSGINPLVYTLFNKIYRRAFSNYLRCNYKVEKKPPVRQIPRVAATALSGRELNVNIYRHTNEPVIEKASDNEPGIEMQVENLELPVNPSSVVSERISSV
Experiment [6] deals with r5-HT7 receptor (Rattus norvegicus (Rat), UniProt P32305). In words: HitHunter cAMP assay, antagonist testing against 100 nM 5-CT. In kind it is cell-based. In outline: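 For antagonism, cells expressing the rat receptor are pretreated with compound (10 min) and stimulated with 100 nM 5-CT (20 min). Lysates are assayed for cAMP by competitive immunoassay. Binding uses [3H]5-CT competition on HEK-293 membranes, giving Ki.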
Chain of r5-HT7 receptor (P32305 1-435): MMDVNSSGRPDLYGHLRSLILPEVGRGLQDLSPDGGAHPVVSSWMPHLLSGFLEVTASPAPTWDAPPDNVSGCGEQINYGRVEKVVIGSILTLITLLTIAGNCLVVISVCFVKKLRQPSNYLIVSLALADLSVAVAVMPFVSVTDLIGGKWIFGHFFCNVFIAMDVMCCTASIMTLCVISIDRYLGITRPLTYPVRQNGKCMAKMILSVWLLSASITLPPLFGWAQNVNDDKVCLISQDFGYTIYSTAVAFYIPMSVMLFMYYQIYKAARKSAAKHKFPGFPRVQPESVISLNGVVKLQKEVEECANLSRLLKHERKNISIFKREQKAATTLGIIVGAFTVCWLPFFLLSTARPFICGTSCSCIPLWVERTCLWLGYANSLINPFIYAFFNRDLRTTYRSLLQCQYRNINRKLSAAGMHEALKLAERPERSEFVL
In general terms: Cyclic AMP is a second messenger, typically raised through Gs and lowered through Gi signalling.

Experiment [7] deals with human SERT (Homo sapiens (Human), UniProt P31645). The experiment can be described thus: human SERT binding assay with [3H]-citalopram on HEK-293 membranes. Conditions: read-out: hSERT binding Ki.
Chain of human SERT (P31645 whole entry): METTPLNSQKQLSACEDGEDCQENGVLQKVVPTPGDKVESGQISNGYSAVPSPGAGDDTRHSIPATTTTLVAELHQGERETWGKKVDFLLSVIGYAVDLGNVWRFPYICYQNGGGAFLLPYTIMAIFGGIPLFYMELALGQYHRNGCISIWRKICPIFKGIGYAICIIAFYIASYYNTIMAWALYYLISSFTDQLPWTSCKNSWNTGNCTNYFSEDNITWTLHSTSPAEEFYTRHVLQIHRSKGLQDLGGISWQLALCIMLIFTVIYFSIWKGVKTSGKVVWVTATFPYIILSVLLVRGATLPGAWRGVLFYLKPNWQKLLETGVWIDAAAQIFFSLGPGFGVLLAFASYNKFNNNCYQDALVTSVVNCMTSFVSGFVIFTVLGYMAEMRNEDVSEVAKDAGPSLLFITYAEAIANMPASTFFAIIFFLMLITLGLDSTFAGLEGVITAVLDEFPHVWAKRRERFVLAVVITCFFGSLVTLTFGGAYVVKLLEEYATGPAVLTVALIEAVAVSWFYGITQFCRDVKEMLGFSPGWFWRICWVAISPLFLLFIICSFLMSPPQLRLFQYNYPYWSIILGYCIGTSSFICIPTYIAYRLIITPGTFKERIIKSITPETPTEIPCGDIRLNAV
The mark [8] stands for this setting: rat 5-HT7 receptor, HEK-293 membranes.
Setting [9] is: h5-HT6, [3H]LSD, HEK-293 membranes.
Where [10] appears, read: antagonist testing, 100 nM 5-CT challenge, HEK-293 r5-HT7, read-out: R5HT7 cAMP pKb (converted).

Where a name gives a salt, the structure may show the parent alone. Read-outs that look alike come from different tables or passages of the source.

Chain of h5HT2A (P28223 whole entry): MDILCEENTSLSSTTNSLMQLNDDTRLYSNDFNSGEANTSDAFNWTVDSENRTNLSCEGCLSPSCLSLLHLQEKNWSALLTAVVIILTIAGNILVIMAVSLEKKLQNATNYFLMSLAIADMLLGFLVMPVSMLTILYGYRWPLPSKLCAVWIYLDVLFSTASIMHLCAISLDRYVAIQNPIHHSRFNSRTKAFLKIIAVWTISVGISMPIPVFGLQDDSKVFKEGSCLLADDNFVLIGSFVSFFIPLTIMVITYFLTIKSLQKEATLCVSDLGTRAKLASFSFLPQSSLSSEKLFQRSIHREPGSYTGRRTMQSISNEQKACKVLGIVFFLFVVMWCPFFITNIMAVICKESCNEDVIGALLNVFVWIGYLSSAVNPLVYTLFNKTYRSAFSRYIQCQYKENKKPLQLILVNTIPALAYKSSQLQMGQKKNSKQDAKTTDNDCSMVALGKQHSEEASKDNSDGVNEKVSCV
Chain of rat 5-HT7 receptor (P32305 1-435): as the sequence (P32305 1-435) above
Chain of h5-HT6 (P50406 whole entry): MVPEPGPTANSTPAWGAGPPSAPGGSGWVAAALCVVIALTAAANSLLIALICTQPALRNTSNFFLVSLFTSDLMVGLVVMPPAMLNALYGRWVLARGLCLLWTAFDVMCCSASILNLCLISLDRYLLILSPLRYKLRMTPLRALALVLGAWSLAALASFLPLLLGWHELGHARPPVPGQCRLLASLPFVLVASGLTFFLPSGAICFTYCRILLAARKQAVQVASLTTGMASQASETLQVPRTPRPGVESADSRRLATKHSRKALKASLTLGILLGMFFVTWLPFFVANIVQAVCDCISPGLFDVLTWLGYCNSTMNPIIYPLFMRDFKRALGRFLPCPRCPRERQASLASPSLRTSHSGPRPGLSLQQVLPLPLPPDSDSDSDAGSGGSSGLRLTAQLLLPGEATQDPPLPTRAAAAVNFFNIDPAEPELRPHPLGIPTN

On to `C[C@@H](Oc1ccc(Br)cc1OC1CNC1)c1cccc(C(F)(F)F)c1` [Example 113, (R)-3-[5-Bromo-2-[1-(3-trifluoromethyl-phenyl)-ethoxy]-phenoxy]-azetidine], for which the Ki (as a rule, a dissociation constant, usually derived from enzyme kinetics or from competition with a known ligand) is 11 nM in experiment [1] (setting [8]); 496 nM in experiment [2] (setting [9]); 206 nM in experiment [3]; 122 nM in experiment [4]; 490 nM in experiment [5].

Take `Clc1ccc(OCC2CCCCC2)c(OC2CNC2)c1` [Example 73, 3-(5-Chloro-2-cyclohexylmethoxy-phenoxy)-azetidine trifluoroacetate]: the inhibitory constant (Ki) in experiment [1] (setting [8]) is 23 nM; in experiment [2] (setting [9]) it was 12 nM. The Kb in experiment [6] is 251 nM.

Consider `CC(Oc1ccc(Br)cc1OC1CNC1)c1cccc(Cl)c1` (racemic) [Example 111, (±)-3-[5-Bromo-2-[1-(3-chloro-phenyl)-ethoxy]-phenoxy]-azetidine], for which the inhibition constant Ki in experiment [1] (setting [8]) worked out at 10 nM; in experiment [2] (setting [9]) it was 268 nM; in experiment [7], 118 nM; in experiment [3], 73 nM; in experiment [4] it was 69 nM; in experiment [5], 331 nM.

As for `CC(Oc1ccc(Cl)cc1OC1CNC1)c1cccc(C(F)(F)F)c1` (stereo in doubt) [Example 101, (S)-3-[5-Chloro-2-[1-(3-trifluoromethyl-phenyl)-ethoxy]-phenoxy]-azetidine], the Ki was 5 nM in experiment [1] (setting [8]); 746 nM in experiment [2] (setting [9]); 152 nM in experiment [7]; 317 nM in experiment [3]; 203 nM in experiment [4]; 933 nM in experiment [5].

With `FC(F)(F)c1ccc(COc2ccc(Cl)cc2OC2CNC2)o1` [Example 54, 3-[5-Chloro-2-(5-trifluoromethyl-furan-2-ylmethoxy)-phenoxy]-azetidine], the Ki came out at 6 nM in experiment [1] (setting [8]), 77 nM in experiment [2] (setting [9]) and 28 nM in experiment [7]. Also, the Kb in experiment [6] (setting [10]) is 7.94 nM.

Take `Clc1cccc(COc2ccc(Cl)cc2OC2CNC2)c1` [Example 37, 3-[5-Chloro-2-(3-chloro-benzyloxy)-phenoxy]-azetidine]: the Ki in experiment [1] (setting [8]) was determined as 8 nM; in experiment [2] (setting [9]), 89 nM; in experiment [7], 7 nM. Further, in experiment [6] (setting [10]), the Kb is 126 nM.

Turning to `Brc1ccc(OCCc2ccccc2)c(OC2CNC2)c1` [Example 195, 3-(5-Bromo-2-phenethyloxy-phenoxy)-azetidine], the Ki in experiment [1] (setting [8]) turned out to be 2 nM; in experiment [2] (setting [9]), 27 nM; in experiment [7], 60 nM; in experiment [3] it was 10 nM; in experiment [4], 4 nM; in experiment [5], 42 nM.

On to `C[C@@H](Oc1ccc(Cl)cc1OC1CCNCC1)c1cccc(C(F)(F)F)c1` [Example 135, (R)-4-[5-Chloro-2-[1-(3-trifluoromethyl-phenyl)-ethoxy]-phenoxy]-piperidine], for which the inhibition constant (Ki) in experiment [1] (setting [8]) came out at 15 nM; in experiment [2] (setting [9]), 1280 nM; in experiment [7] it was 96 nM; in experiment [3], 140 nM; in experiment [4], 27 nM; in experiment [5], 755 nM.

For `Clc1ccc(OCCc2ccccc2)c(OC2CNC2)c1` [Example 186], the Ki in experiment [1] (setting [8]) is 5 nM; in experiment [2] (setting [9]), 33 nM; in experiment [7], 53 nM; in experiment [3] it was 14 nM; in experiment [4], 8 nM; in experiment [5], 79 nM.

`CN1CC(Oc2cc(Cl)ccc2OCc2cccc(Cl)c2)C1` [Example 38, 3-[5-Chloro-2-(3-chloro-benzyloxy)-phenoxy]-1-methyl-azetidine]: the values for the inhibition constant (Ki) in experiment [1] (setting [8]), in experiment [2] (setting [9]) and in experiment [7] were 6 nM, 36 nM and 100 nM, respectively. Moreover, the Kb in experiment [6] (setting [10]) was 10 nM.

For the molecule `COc1ccc2c(c1)CC(Oc1ccc(Cl)cc1OC1CNC1)C2` (stereo not drawn) [Example 177, 3-[5-Chloro-2-(5-methoxy-indan-2-yloxy)-phenoxy]-azetidine], the inhibition constant Ki in experiment [1] (setting [8]) came out at 12 nM; in experiment [2] (setting [9]), 123 nM; in experiment [7], 262 nM; in experiment [3], 35 nM; in experiment [4], 56 nM; in experiment [5], 140 nM.

Turning to `CN1CC[C@@H](Oc2cc(Cl)ccc2OCc2cccc(Cl)c2)C1` [Example 59, (R)-3-[5-Chloro-2-(3-chloro-benzyloxy)-phenoxy]-1-methyl-pyrrolidine], the inhibitory constant (Ki) in experiment [1] (setting [8]) was determined as 27 nM; in experiment [2] (setting [9]) it was 84 nM; in experiment [7] it was 353 nM. The Kb in experiment [6] (setting [10]) was 15.8 nM.

In the case of `Clc1cccc(COc2ccc(Br)cc2OC2CCNCC2)c1` [Example 65, 4-[5-Bromo-2-(3-chloro-benzyloxy)-phenoxy]-piperidine], the Ki in experiment [1] (setting [8]) turned out to be 11 nM; in experiment [2] (setting [9]), 41 nM; in experiment [7] it was 14 nM. Moreover, the Kb in experiment [6] (setting [10]) is 126 nM.

For `Brc1ccc(Oc2ccccc2)c(OC2CNC2)c1` [Example 244, 3-(5-Bromo-2-phenoxy-phenoxy)-azetidine], the inhibitory constant (Ki) turned out to be 20 nM in experiment [1] (rat 5-HT7, HEK-293 membranes); 46 nM in experiment [2] (h5-HT6, HEK-293 membranes, [3H]LSD); 5000 nM in experiment [7]. Moreover, the Kb in experiment [6] (setting [10]) is 251 nM.

For `Clc1cccc(CCOc2ccc(Cl)cc2OC2CNC2)c1` [Example 185, 3-[5-Chloro-2-[2-(3-chloro-phenyl)-ethoxy]-phenoxy]-azetidine], the inhibition constant (Ki) in experiment [1] (setting [8]) came to 6 nM; in experiment [2] (setting [9]), 177 nM; in experiment [7], 29 nM; in experiment [3], 8 nM; in experiment [4] it was 7 nM; in experiment [5] it was 91 nM.

With `Fc1cccc(COc2ccc(Br)cc2OC2CNC2)c1` [Example 17, 3-[5-Bromo-2-(3-fluoro-benzyloxy)-phenoxy]-azetidine trifluroacetate], the inhibitory constant (Ki) in experiment [1] (setting [8]) was found to be 10 nM; in experiment [2] (setting [9]) it was 39 nM; in experiment [7], 4 nM. Also, in experiment [6] (setting [10]), the Kb is 50.1 nM.

In the case of `Clc1ccccc1COc1ccc(Br)cc1OC1CNC1` [Example 15, 3-[5-Bromo-2-(2-chloro-benzyloxy)-phenoxy]-azetidine trifluoroacetate], the inhibitory constant (Ki) was 17 nM in experiment [1] (setting [8]), 45 nM in experiment [2] (setting [9]) and 5 nM in experiment [7]. Further, the Kb in experiment [6] (setting [10]) is 631 nM.

`CC(Oc1ccc(Cl)cc1OC1CNC1)c1ccc(C(F)(F)F)o1` (racemic) [Example 146, (±)-3-[5-Chloro-2-[1-(5-trifluoromethyl-furan-2-yl)-ethoxy]-phenoxy]-azetidine]: the Ki in experiment [1] (setting [8]) is 12 nM; in experiment [2] (setting [9]), 558 nM; in experiment [7], 59 nM. The Kb in experiment [6] (setting [10]) was 7.94 nM.

For the molecule `C[C@@H](Oc1ccc(C(F)(F)F)cc1OC1CNC1)c1cccc(C(F)(F)F)c1` (stereo in doubt) [Example 200, 3-[5-Trifluoromethyl-2-[1-(3-trifluoromethyl-phenyl)-ethoxy]-phenoxy]-azetidine], the inhibition constant Ki in experiment [1] (setting [8]) was found to be 31 nM; in experiment [7] it was 224 nM; in experiment [3], 605 nM; in experiment [4], 7570 nM; in experiment [5], 5000 nM. In addition, the Kb in experiment [6] (setting [10]) is 158 nM.

With `FC(F)(F)c1ccc(COc2ccc(Br)cc2OC2CNC2)o1` [Example 10, 3-[5-Bromo-2-(5-trifluoromethyl-furan-2-ylmethoxy)-phenoxy]-azetidine], the Ki in experiment [1] (setting [8]) came to 7 nM; in experiment [2] (setting [9]), 50 nM; in experiment [7], 39 nM. Also, the Kb in experiment [6] (setting [10]) is 6.31 nM.

These data come from patent US9981909B2 (Janssen Pharmaceutica NV, priority 2008, dated 2018).
